# Assays:
# CaV3.1 = biological target: T1, CaV3.1 (Homo sapiens, UniProt O43497); assay: whole-cell patch clamp, […] NMP-181, tsA-201 cells transiently expressing human CaV3.[…]; assay type: cell-based
# T1 construct: gene CACNA1G; α1 subunit
# human CB2 receptor = biological target: T2, human CB2 receptor (Homo sapiens, UniProt P34972); assay: [3H]CP55940 radioligand competition, membranes of HEK293 cells expressing human CB2; low-efficacy agonist in GTPγ[…] assay ([…] at […]); assay type: binding
# T2 construct: gene CNR2
# T2 sequence (P34972 whole entry): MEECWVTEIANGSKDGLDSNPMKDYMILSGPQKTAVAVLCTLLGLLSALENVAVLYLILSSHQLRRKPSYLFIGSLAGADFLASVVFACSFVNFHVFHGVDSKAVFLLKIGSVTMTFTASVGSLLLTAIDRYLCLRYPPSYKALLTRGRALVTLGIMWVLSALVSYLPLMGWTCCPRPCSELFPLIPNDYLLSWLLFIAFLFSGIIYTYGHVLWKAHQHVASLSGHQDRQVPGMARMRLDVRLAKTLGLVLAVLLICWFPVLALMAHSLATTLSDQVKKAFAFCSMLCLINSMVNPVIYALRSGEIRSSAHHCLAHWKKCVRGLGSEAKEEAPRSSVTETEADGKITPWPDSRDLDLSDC
# CaV3.2 = biological target: T3, CaV3.2 (Homo sapiens, UniProt O95180); assay: whole-cell patch clamp, tsA-201 cells transiently expressing human CaV3.[…]; assay type: cell-based
# T3 construct: gene CACNA1H; α1 subunit
# T3 sequence (O95180 whole entry): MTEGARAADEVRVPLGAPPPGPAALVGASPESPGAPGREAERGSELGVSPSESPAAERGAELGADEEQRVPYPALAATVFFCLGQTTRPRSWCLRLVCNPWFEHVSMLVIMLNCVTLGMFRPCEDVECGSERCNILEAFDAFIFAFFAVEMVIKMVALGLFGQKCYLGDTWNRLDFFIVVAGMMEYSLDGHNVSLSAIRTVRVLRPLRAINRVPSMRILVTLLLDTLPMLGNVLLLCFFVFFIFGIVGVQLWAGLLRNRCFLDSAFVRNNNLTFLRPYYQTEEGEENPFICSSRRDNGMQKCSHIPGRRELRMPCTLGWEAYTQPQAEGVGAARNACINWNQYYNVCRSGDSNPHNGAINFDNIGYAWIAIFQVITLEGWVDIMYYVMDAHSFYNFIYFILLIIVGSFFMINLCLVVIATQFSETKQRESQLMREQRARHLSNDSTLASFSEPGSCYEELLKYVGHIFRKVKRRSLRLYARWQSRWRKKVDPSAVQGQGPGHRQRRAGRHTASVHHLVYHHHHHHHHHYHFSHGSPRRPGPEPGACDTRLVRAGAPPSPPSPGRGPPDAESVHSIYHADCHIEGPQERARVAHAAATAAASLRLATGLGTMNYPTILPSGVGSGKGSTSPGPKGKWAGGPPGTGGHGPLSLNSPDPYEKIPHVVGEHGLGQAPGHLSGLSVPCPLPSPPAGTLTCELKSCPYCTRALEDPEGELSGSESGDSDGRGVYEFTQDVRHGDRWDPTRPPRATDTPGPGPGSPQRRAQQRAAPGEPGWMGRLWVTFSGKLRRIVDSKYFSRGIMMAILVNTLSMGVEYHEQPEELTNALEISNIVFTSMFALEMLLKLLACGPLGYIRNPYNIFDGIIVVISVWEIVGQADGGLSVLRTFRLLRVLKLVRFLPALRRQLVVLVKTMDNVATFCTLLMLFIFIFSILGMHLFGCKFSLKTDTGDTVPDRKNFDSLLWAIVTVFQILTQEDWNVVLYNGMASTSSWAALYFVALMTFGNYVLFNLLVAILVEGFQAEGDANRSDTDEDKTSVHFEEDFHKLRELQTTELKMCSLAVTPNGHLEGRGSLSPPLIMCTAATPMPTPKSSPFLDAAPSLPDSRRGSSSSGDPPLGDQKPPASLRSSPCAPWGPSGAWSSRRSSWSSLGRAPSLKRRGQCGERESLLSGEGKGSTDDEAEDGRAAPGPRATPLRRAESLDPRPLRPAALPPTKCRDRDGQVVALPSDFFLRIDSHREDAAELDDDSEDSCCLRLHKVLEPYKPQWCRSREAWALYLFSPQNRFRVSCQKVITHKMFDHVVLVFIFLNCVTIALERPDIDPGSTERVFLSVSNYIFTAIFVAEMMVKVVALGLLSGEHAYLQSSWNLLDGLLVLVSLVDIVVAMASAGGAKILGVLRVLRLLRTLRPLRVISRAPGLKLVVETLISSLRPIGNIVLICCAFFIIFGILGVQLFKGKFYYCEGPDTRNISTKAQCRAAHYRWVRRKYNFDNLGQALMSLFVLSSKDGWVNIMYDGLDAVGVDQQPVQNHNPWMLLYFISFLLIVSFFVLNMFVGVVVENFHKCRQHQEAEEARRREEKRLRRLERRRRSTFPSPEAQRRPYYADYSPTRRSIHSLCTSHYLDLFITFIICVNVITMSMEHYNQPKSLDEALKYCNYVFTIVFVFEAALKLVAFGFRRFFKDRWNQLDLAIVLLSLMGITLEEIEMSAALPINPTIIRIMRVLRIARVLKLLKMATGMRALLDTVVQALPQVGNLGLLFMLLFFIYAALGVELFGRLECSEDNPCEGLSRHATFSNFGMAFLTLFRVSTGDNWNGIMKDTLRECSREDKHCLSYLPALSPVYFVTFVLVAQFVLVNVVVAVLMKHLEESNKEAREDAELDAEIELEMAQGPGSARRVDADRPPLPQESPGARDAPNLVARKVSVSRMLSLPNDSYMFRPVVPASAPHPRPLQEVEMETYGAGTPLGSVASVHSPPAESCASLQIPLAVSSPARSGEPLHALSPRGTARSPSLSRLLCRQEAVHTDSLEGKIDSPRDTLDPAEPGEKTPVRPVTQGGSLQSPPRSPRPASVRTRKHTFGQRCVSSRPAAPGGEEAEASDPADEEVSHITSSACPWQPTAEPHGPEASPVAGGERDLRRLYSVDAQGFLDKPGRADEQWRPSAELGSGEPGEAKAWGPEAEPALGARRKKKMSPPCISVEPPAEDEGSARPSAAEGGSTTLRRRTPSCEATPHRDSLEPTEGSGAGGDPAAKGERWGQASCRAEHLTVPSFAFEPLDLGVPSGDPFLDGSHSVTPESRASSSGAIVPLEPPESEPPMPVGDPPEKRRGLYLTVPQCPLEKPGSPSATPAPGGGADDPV
# T1 sequence (O43497 whole entry): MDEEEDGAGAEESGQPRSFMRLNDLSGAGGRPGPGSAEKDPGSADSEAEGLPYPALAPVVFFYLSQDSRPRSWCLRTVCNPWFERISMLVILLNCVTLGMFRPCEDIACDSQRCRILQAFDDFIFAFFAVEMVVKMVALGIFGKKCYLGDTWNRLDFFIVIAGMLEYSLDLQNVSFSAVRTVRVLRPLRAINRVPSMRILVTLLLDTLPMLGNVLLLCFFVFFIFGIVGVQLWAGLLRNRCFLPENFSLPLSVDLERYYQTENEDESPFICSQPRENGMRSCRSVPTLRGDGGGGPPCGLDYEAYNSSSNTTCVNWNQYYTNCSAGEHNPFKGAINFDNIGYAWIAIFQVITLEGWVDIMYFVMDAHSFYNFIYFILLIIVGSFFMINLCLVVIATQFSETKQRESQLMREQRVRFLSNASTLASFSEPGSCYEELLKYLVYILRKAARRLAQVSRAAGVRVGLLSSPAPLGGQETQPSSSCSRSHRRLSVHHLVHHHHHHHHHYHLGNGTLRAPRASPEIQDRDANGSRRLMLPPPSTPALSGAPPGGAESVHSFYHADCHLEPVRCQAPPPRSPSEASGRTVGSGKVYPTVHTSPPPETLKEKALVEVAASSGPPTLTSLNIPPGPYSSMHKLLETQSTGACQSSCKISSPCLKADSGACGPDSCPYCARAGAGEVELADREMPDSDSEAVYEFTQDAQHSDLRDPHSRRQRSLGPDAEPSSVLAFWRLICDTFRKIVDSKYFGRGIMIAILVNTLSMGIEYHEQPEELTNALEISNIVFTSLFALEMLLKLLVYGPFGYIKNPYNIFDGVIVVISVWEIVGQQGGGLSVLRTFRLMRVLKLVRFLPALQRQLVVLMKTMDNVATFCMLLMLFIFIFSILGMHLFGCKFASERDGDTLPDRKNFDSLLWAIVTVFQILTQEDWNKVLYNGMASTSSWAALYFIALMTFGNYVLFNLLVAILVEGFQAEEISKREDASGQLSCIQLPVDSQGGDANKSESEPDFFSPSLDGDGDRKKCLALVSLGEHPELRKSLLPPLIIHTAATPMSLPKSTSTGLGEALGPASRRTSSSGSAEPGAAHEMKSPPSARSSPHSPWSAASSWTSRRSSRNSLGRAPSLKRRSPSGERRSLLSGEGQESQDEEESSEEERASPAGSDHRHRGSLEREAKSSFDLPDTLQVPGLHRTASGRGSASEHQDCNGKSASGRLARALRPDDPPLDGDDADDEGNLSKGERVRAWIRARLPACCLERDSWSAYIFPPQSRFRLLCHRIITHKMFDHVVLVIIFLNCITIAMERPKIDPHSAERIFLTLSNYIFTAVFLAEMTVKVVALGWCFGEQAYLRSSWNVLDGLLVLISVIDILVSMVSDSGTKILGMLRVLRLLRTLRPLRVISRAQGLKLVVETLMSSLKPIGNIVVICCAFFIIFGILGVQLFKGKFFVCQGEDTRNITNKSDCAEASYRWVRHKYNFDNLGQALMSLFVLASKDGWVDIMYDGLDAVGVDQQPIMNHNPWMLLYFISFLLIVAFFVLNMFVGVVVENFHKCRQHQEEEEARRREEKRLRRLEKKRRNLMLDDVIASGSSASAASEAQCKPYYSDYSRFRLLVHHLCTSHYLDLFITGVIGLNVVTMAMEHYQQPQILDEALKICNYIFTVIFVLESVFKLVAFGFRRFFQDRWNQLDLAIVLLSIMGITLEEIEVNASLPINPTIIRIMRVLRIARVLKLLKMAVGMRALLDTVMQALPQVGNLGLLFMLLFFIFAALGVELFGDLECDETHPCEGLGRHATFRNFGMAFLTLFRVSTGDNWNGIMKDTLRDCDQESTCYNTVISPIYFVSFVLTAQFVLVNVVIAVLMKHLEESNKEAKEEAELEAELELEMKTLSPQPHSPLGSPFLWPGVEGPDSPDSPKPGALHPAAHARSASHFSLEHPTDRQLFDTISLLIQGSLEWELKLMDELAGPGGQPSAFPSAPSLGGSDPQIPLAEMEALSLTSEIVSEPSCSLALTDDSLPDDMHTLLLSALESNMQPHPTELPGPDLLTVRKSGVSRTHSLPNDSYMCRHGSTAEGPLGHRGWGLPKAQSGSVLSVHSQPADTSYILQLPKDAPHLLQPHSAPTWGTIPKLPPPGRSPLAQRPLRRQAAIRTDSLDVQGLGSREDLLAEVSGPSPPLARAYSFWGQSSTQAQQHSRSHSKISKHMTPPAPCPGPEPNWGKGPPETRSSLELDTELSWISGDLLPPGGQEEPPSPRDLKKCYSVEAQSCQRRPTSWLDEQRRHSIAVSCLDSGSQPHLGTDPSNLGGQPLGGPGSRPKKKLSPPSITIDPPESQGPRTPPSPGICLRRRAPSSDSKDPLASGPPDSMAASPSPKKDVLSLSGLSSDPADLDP
compound,measurement,setting,value
CCCCCn1c2ccccc2c2cc(C(=O)OCCN(C)C)ccc21 [NMP-181],"whole-cell patch clamp, 10 μM NMP-181, tsA-201 cells transiently expressing huma",CaV3.1,the degree of inhibition was similar for all three CaV3 isoforms
same,Ki,human CB2 receptor,123 ± 28 nM
same,IC50,CaV3.2,4600 nM

# — article PMC3703287, “Analgesic effect of a mixed T-type channel inhibitor/CB2 receptor agonist” (Molecular Pain, 2013)
